These results are taken from patent US10028971B2, “Compositions and methods for treating psychiatric disorders” (GOSFORTH CENTRE (HOLDINGS) PTY LTD., priority 2008, dated 2018).

Series [1] relates to individuals with MCI or dementia. Conditions: cited from earlier work; for effect in mild cognitive impairment (reports): individuals with MCI.
A further series concerns adults with ADHD. The following applies: for group outcome of combination therapy: adults with ADHD. Here is the method: In the clinical setting a number of adults with ADHD experienced a combination therapy of stimulant medication (dexamphetamine) in combination with sodium valproate (VPA). The initial dosages used were from 15 to 70 mg/day of dexamphetamine and from 100 to 700 mg/day of VPA (Epilim) (=approximately 2 to 10 mg/kg/day).
The determination of the dose for the dexamphetamine was undertaken in a clinical sensitive open label manner. The dose was titrated upwards dependent on the clinical response and the freedom from side-effects. The dose range was between 15 and 70 mg a day. The frequency of the dosing also varied dependent upon the clinical response. The usual dose interval was between two to four hours. This dosing adjustment took place prior to the commencement of the sodium valproate. The sodium valproate medication was initiated once a day at 50 mg tablet or elixir and titrated upwards dependent on response, but not more than one increase every three days. The dose was given as a once or twice a day regime. During the titration phase, if clinically possible, no other adjustments to the pharmacotherapy were undertaken.

Series [2] concerns individual not meeting the full criteria for ADHD. In words: Subthreshold ADHD, clinical case (Example 21). It is filed as in vivo, human. Conditions: person; topiramate 12.5 mg daily added to dexamphetamine 2.5 mg daily.
For series [3], the system named is patients with an eating disorder and ADHD. In words: Treatment of eating disorders, clinical observation. Conditions: person.
From the text: The use of sodium valproate at low dose levels can then be titrated to a level that does effectively control these thoughts. This may or may not be at the therapeutic dose used in the treatment of bipolar disorder.
Series [4] concerns mood stabilisation or epileptic symptoms or events. The following applies: cited from earlier work; for Minimum Dose/day effective for mood stabilisation or treatment of epileptic symptoms or events: usual minimum anti-convulsant dose per day.
Series [5] concerns patients with substance addiction. The following applies: psychostimulants alone; cited from earlier work.
Series [6] shares this test system. In words: Treatment of addictions, clinical observation. The format is in vivo, human. The following applies: person; dexamphetamine alone over 6 months. An excerpt: Addiction to amphetamines poses a number of unique challenges.
The subject of series [7] is individuals with developmental dyspraxia / poor coordination. In words: Treatment of developmental dyspraxia, clinical observation. The following applies: person, ADHD. The format is in vivo, human. From the text:
Many of the individuals treated at this clinic, with a diagnosis of ADHD and/or pervasive development disorder such Asperger's Syndrome or autism also present with symptoms consistent with a diagnosis of a developmental coordination disorder. They are often described as ‘unco’ (unco-ordinated) by their peers and experience victimization, poor self-esteem and frustration as a consequence of their poor coordination. […] Individuals have described a sense of having more time to coordinate movements and to understand and integrate their own activity appropriately within a team sport such as soccer, which has previously eluded them. Individuals have felt frustration at being able to practise repeatedly an activity or skill only to be unable to put it into practice when required, within the play of a match. It is proposed that individuals were previously unable to process and plan their own coordination but remain aware of the general activity in which they were participating.

Series [8] has as its system individuals with MCI or dementia. In words: Mild cognitive impairment and dementia, clinical cases (Developmental Eye Movement test, Alzheimer's Quick Test). The format is in vivo, human. The following applies: person. An excerpt:
A married person with a history of good cognitive functioning until last 4-5 yrs when noted by both their spouse and themself to becoming increasingly socially withdrawn primarily because of the difficulty in listening without distraction during social interaction, no known childhood or adult history of prior attentional or impulsive disorders. It has been clinically observed by the inventor that individuals treated with low dose antiepileptic were enhanced in their ability to discriminate irrelevant from the relevant sound was enhanced. […] On ceasing the medication there was an initial improvement again over the preceding 3 to 7 days followed by a loss of the therapeutic effects and returned to their pre-medication function. On the ressumption of the 12.5 mg phenytoin there was a return of the improved function. On this second occasion they were more aware of the benefits and also the gradual return of the detrimental clinic effects. During the clinical assessment it was noted that they had more flexibility in their conversation and more natural use of non-verbal cues, there was also enhancement of their egocentric gaze. […] These benefits were also noted by their spouse. […] Again these medications were ceased resulting in a loss of associated benefits. With each trial of medication they became more apparent to the patient and their spouse of the benefits of the therapy. They attempted whilst not taking the medication to communicate and follow the conversation in a way that they had been able to whilst on treatment. They found when attempting to do so they became mentally exhausted and unable to sustain the effort required for the interaction. The improvements noted clinically and also recorded using the Developmental Eye Movement test and a measure of parietal function the Alzheimer's Quick Test. Married person diagnosed with fronto-temporal dementia. they had been assessed by neuropsychologist, and geriatrician and psychiatrist to confirm this diagnosis. […] They then relied on others to make decisions for […]. They had gradually become socially disengaged finding such interactions distressing and demanding. […] Despite ongoing difficulties of word finding they were able to socially interact more spontaneously than they had done for many years. And have confidence in areas of conversation that they previously would have avoided. […] On two occasions the medication was withdrawn and then reintroduced, due to the experimental nature of treatment and concern that there might be a significant placebo effect. […] Following the subsequent reduction there was a return of the improvement previously noted.

For series [9], the system named is Parkinson's disease patient. In words: Parkinson's disease clinical example with infrared eye tracking. The format is in vivo, human. Conditions: 12.5 mg phenytoin. An excerpt: Clinical example person with a ten-year history of Parkinson's disease. Moderate to severe motor symptoms with muscle rigidity, resting tremor, brady-[…] slowing of speech. No evidence of dementia or depression. […] An enhanced initiation of movement. Also described an improved perception of efficiency in thought and action. No evidence of loss of efficacy of medication. Using infrared eye tracking technology it was noted that the fixations and […] movements were enhanced after treatment. Measurements were undertaken both whilst silent and speaking with and without eye contact with the investigator. Based on these investigations in Parkinson's disease and also in mild cognitive impairment and dementia we consider that condition is described as Parkinson plus diseases, including multiple system atrophy (MSA), progressive supranuclear palsy (PSP), corticobasal degeneration (CBD), and dementia with Lewy bodies (DLB)s may also benefit from the addition of a low dose AED with and without a psychostimulant.

Series [10] concerns adherence to medication regime. Conditions: person, anxiety and depression, no ADHD; 25 mg phenytoin.
From the text: As a result, taking medication becomes an automatic activity which doesn't require a high level of attention and motivation.
The individual experiences an improvement in the ability to efficiently and effectively attend to a task in hand, without also needing to expend extra cognitive effort to remember which medication to take and at what times.
In series [11] the test system is patients with an eating disorder and ADHD. Conditions: double-blind studies; effects thought only short-lived; cited from earlier work.
The conditions of series [12]: in vivo; cited from earlier work.
The mark [13] stands for this setting: fronto-temporal dementia, 25 mg phenytoin.

Structures are written as SMILES. Like-named read-outs stand apart in the source and are kept apart here.

As to `COc1cc2c(cc1OC)C(=O)C(CC1CCN(Cc3ccccc3)CC1)C2` (stereo not shown) [Donepezil], the “side effects in MCI (reports)” value in series [1] (human, in vivo) is “significant side effects”. Further, in series [1], the “effect in mild cognitive impairment (reports)” value was “only minor, short-term benefits”.
With `CC1(C)O[C@@H]2[C@@H](CO[C@@]3(COS(N)(=O)=O)OC(C)(C)O[C@@H]23)O1` [Topiramate, 2,3:4,5-Bis-O-(1-methylethylidene)-beta-D-fructopyranose sulfamate], the “group outcome of combination therapy” value in the series with adults with ADHD (dexamphetamine 30-80 mg/d with Topiramate 12.5-50 mg/d) is on record as “successfully treated”; in the series on adults with ADHD (median 40 mg/d Dexamphetamine, 120 mg/d Sodium Valproate, 25 mg/d Topiramate), “successfully treated”; in the series with adults with ADHD (methylphenidate 40-55 mg/d with Topiramate 12-37.5 mg/d), “successfully treated”. The “clinical outcome (case)” value with adults with ADHD (person, ADHD, 25 mg topiramate added to dexamphetamine 30 mg) is “ability to complete tasks, improvement in cognition”; in the series with adults with ADHD (person, 25 mg topiramate added to oros extended release methylphenidate) it was “improved organisation, cognition, enhanced interpersonal functioning, and ability to sustain egocentric eye gaze”; in the series with adults with ADHD (person, topiramate 25 mg added to sodium valproate 300 mg and dexamphetamine 20 mg) it was “Further improvements in interpersonal professional functioning”; in series [2] it was “significant improvement”; in series [3] (25 mg topiramate added to 45 mg extended release methylphenidate) it was “improved organisation, enhanced interpersonal functioning, improved cognition and able to sustain egocentric eye gaze”. Further, in [4] (in vivo), the “target dose for controlling epileptic seizures” value is reported as 100 to 500 mg/day. Further, the “Minimum Dose/day effective for mood stabilisation or treatment of epileptic symptoms or events” value in series [4] is listed as 100 mg.
For `C[C@H](N)Cc1ccccc1` [dexamphetamine], the “use alone in treatment of amphetamine and cocaine addiction” value in series [5] was “unhelpful”. The “stability and functional benefit (case)” value in series [6] was “not noted”.
Consider `O=C1NC(=O)C(c2ccccc2)(c2ccccc2)N1` [Phenytoin], for which, in the series with adults with ADHD (50 mg phenytoin dose with dexamphetamine, many clinical situations), the “course of benefit on continued dosing” value is “loss of benefit of the therapy over the proceeding weeks and months”. For the same compound, the “clinical outcome (case)” value in the series on adults with ADHD (adult female, phenytoin 50 mg added to sodium valproate 100 mg and methylphenidate) is “Pervasive and robust psychosocial improvement”; in the series with adults with ADHD (person, ADHD, phenytoin 30 mg added to dexamphetamine), “improvement in ability to read and sustain enjoyable conversation”; with adults with ADHD (person, 12.5 mg phenytoin added to sodium valproate 100 mg and dexamphetamine), “Significant improvement in ability to maintain egocentric eye gaze and cognition”; with adults with ADHD (person, 50 mg phenytoin added to methylphenidate 120 mg per day), “improved cognition with increased confidence in interpersonal relationships”; with adults with ADHD (person, phenytoin 20 mg per day added to sodium valproate and dexamphetamine), “further improvement of the sequencing and organisation of thoughts”; in the series on adults with ADHD (person, phenytoin 50 mg later 25 mg added to dexamphetamine and sodium valproate 200 mg) it was “immediate improvement of stability of affect and clarity of thinking”. Moreover, the “clinical outcome (case)” value in [7] (phenytoin 25 mg added to dexamphetamine 25 mg, atomexetine 60 mg, sodium valproate 150 mg) was “improvement in coordination”; in series [8] (setting [13]), “remarkable improvement in their cognitive functioning”; in series [8] (social withdrawal, phenytoin 12.5 mg daily) it was “able to socially interact in a more meaningful way”; in [8] (phenytoin 10 mg added to low dose sodium valproate) it was “more robust improvement on either medication alone”; in [8] (phenytoin 50 mg for two weeks) it was “loss of the therapeutic benefit and general impairment”; in series [8] (phenytoin increased to 25 mg, over 6 to 8 weeks) it was “loss of the benefits”. Further, the “clinical outcome (case)” value was “improved verbal fluency, enhanced and less effortful social connection and eye contact” in series [9] (person, ten-year Parkinson's disease); “improved self organisation and ability to plan ahead without effort” in series [10]. For the same compound, the “group outcome of combination therapy” value in the series with adults with ADHD (Methylphenidate 40 mg/d, Valproate 100 mg/d, Phenytoin 50 mg/d) is given as “successfully treated”; with adults with ADHD (dexamphetamine 20-45 mg/d, Valproate 100-400 mg/d, Phenytoin 12.5-50 mg/d) it was “successfully treated”; in the series with adults with ADHD (dexamphetamine 20-75 mg/d with Phenytoin 1-75 mg/d), “successfully treated”; in the series on adults with ADHD (methylphenidate 15-105 mg/d with Phenytoin 25-50 mg/d), “successfully treated”. Further, the “Minimum Dose/day effective for mood stabilisation or treatment of epileptic symptoms or events” value in series [4] is 200 mg. Also, the “rapid automatic naming and Alzheimer's Quick Test (AQT)” value in [8] (setting [13]) is “significant improvement in their functioning”. Moreover, the “fixations and saccadic eye movements after treatment” value in series [9] (infrared eye tracking) was “enhanced”. The “time to noted improvement” value in series [9] (person) is recorded as 2 to 3 days.
Turning to `COC(=O)C(c1ccccc1)C1CCCCN1` (stereo not shown) [methylphenidate], the “clinical outcome (case)” value in the series on adults with ADHD (adult female, ADHD, anorexia nervosa bulimic subtype, methylphenidate alone) was “reasonable improvement”; in the series on adults with ADHD (person 120 kg, ADHD, methylphenidate 120 mg per day alone), “Remain disorganized and inconsistent with taking medication”; in the series with adults with ADHD (person, ADHD, methylphenidate 55 mg), “improvement in their symptoms of impaired attention and concentration”; in the series on adults with ADHD (person, anorexia nervosa, ADHD, methylphenidate alone) it was “inconsistent”; in series [3] (anorexia nervosa, ADHD, methylphenidate, 45 mg extended release), “inconsistent”; in series [7] (autism, developmental dyspraxia, methylphenidate max 95 mg daily), “Limited improvement with poor compliance”. Moreover, the “effect on bulimic symptoms” value in series [11] was “suppression of bulimic symptoms”. Besides, in [12], the duration of action was 2 to 4 h.
`CCN(C)C(=O)Oc1cccc([C@H](C)N(C)C)c1` [Rivastigmine]: the “effect in mild cognitive impairment (reports)” value in series [1] is given as “failed to stop or slow progression to Alzheimer's disease or improve cognitive function”.
